The source of these data is paper PMC12735704, “Synthesis of Substituted 1H-Phenalen-1-ones and Nitrogen-Containing Heterocyclic Analogues as Potential Anti-Plasmodial Agents” (Molecules, 2025).

Assay [1] has as its system Chloroquine-resistant P. falciparum FCR3. Briefly: In vitro antimalarial assay (parasitemia by blood smear, 48 h with compound). In kind it is cell-based, Plasmodium falciparum. The conditions noted are these: mean ± SD of three determinations. How it is done:
• In vitro antimalarial assay.
FCR-3 chloroquine-resistant strain of P. falciparum (kindly provided by Dr. Fandeur, Pasteur Institute, Cayenne, France) was cultured on glucose-enriched RPMI 1640 medium, supplemented with 10% human serum at 37 °C. After 24 h of incubation at 37 °C, the medium was replaced by fresh medium supplemented with the compound to be evaluated (initial a screening used a concentration of 10 μg/mL), and incubation was continued for a further 48 h. On the third day of the test, a blood smear was taken from each well, and parasitemia was calculated for each concentration of sample compared to the control. Chloroquine (0.1 μg/mL) was used as a positive control. IC50 values were determined graphically by plotting concentrations (0.01–10 μg/mL) versus percent inhibition. All tests were performed in triplicate.

For the next assay, the system named is MCF-7 cells. Briefly: Cytotoxicity study by MTT proliferation assay. In kind it is cell-based. The conditions noted are these: 72 h; for inhibition at 10 µM: Homo sapiens, MCF7, inhibition of cell growth, read-out: MCF-7 % Inh ± DS (10 μM); for MCF-7 % Inh ± DS (10 μM): inhibition of cell growth. How it is done: • Cytotoxicity study by MTT proliferation assay. MCF-7 cells were purchased from ATCC (Manassas, VA, USA) and cultured in DMEN containing 10% FBS. For 3-(4,5-dimethylthiazol-2-yl)-2,5-diphenyltetrazolium (MTT) (Sigma–Aldrich, St. Louis, MO, USA) analysis, cells were plated in 96-well plates at 10,000 cells/well. Twenty-four hours after plating, vehicle (0.1% DMSO, final concentration) or compound was added to cells at indicated doses. Seventy-two hours following compound addition, MTT was added to each well (0.5 mg/mL, final concentration) and plates were incubated for an additional 3 h at 37 °C. Medium was then aspirated and the formazan product was solubilized in SDS–HCl (20% SDS; HCl 0.02 M). The absorbance of each well was measured at 570 nm using a microplate reader (Sigma–Aldrich, St. Louis, MO, USA).

Assay [2] has as its system Chloroquine-resistant P. falciparum FCR3. Put plainly: In vitro antimalarial assay (parasitemia by blood smear, 48 h with compound). In kind it is cell-based, Plasmodium falciparum. The conditions noted are these: for antiplasmodium activity (in words): FCR3 strain, tested up to 10 µM.
For another assay, the system named is Plasmodium falciparum. Further details: method as in PMID 23985373. The conditions noted are these: previously tested compounds; read-out: IC50 (antiplasmodial activity, previously tested compounds); cited from earlier work.
[3] abbreviates: Plasmodium falciparum, FCR3, FCR3 strain.

Where two headings read alike, the source gives them in different places.

Turning to `O=C1C=Cc2cccc3ccc(-c4ccc(F)cc4)c1c23` [Compound 11, 9-(4-fluorophenyl)-1H-phenalen-1-one], the IC50 in assay [1] (setting [3]) is over 10 µM. The inhibition at 10 µM with MCF-7 cells came to 8 ± 0.2%.

As for `N#Cc1ccc(C2=Cc3cccc4cccc(c34)C2=O)cc1` [Compound 5, 4-(1-oxo-1H-phenalen-2-yl)benzonitrile], in assay [1] (setting [3]), the IC50 was over 10 µM. For the same compound, the inhibition at 10 µM in the assay on MCF-7 cells is 12 ± 0.3%.

As for `O=C1C=Cc2cccc3ccc(Nc4ccc(Cl)cc4)c1c23` [Compound 17, 9-[(4-chlorophenyl)amino]-1H-phenalen-1-one], in assay [1] (setting [3]), the IC50 was over 10 µM. In the assay with MCF-7 cells, the inhibition at 10 µM worked out at 12 ± 0.3%.

`COc1cccc(-c2ccc3cccc4c3c2C(=O)C=C4)c1` [Compound 13, 9-(3-methoxyphenyl)-1H-phenalen-1-one]: the IC50 in assay [1] (setting [3]) is over 10 µM. For the same compound, the inhibition at 10 µM in the assay on MCF-7 cells was 12 ± 0.1%.

Consider `O=C1C(Nc2ncccn2)=Cc2cccc3cccc1c23` [Compound 25, 2-(pyrimidin-2-ylamino)-1H-phenalen-1-one], for which the IC50 in assay [1] (setting [3]) is over 10 µM. Further, the inhibition at 10 µM in the assay with MCF-7 cells worked out at 16 ± 0.9%.

Turning to `Cc1cccc(C)c1Nc1ccc2cccc3c2c1C(=O)C=C3` [Compound 16, 9-[(2,6-dimethylphenyl)amino]-1H-phenalen-1-one], in assay [1] (setting [3]), the IC50 is over 10 µM. The inhibition at 10 µM in the assay with MCF-7 cells came to 0%.

For the compound “2-((2,6-dimethylphenyl)amino)-2,3-dihydro-1H-phenalen-1-one [Compound 24]”, the IC50 in assay [1] (FCR3 strain) is over 10 µM. Also, the “MCF-7 % Inh ± DS (10 μM)” value with MCF-7 cells is 7 ± 0.5%.

With `O=C1C=Cc2cccc3cccc1c23` [Compound 1, 1H-phenalen-1-one], the IC50 in assay [1] (setting [3]) was 2.46 ± 0.08 µM. Besides, in the assay on MCF-7 cells, the inhibition at 10 µM was 16 ± 0.4%.

As to `COc1ccc2c3c(cncc13)C(=O)C=C2` [Compound 36, 9-methoxy-4H-benzo[de]isoquinolin-4-one], the IC50 in assay [1] (setting [3]) is over 10 µM. The inhibition at 10 µM with MCF-7 cells worked out at 5 ± 0.9%.

`N#Cc1ccc2cccc3c2c1C(=O)C=C3` [Compound 18, 1-oxo-1H-phenalene-9-carbonitrile]: the inhibition at 10 µM in the assay with MCF-7 cells came to 32 ± 0.5%. Also, the “antiplasmodium activity (in words)” value in assay [2] is recorded as “most potent compound”.

Consider `CCOC(=O)c1cc2cccc3c2c(c1O)C(=O)C=C3` [Compound 33, ethyl 9-hydroxy-1-oxo-1H-phenalene-8-carboxylate], for which, in assay [1] (setting [3]), the IC50 was over 10 µM. Moreover, in the assay on MCF-7 cells, the inhibition at 10 µM worked out at 0%. The “antiplasmodium activity (in words)” value in assay [2] is on record as “lost”.

For “N-(1-oxo-1H-phenalene-2-yl)carboxamide [Compound 21]”, the IC50 in assay [1] (FCR3 strain) is over 10 µM. In the assay with MCF-7 cells, the “MCF-7 % Inh ± DS (10 μM)” value was 8 ± 0.3%.

On to `O=C1C=Cc2cccc3cncc1c23` [Compound 35, 4H-benzo[de]isoquinolin-4-one], for which, in assay [1] (setting [3]), the IC50 is over 10 µM. The inhibition at 10 µM with MCF-7 cells amounted to 7 ± 0.1%. The “antiplasmodium activity (in words)” value in assay [2] was “complete loss of activity”.

For `O=C(O)c1cc2cccc3c2c(c1O)C(=O)C=C3` [Compound 34, 9-hydroxy-1-oxo-1H-phenalene-8-carboxylic acid], the IC50 in assay [1] (setting [3]) is over 10 µM. Moreover, in the assay with MCF-7 cells, the inhibition at 10 µM came to 0%. Moreover, the “antiplasmodium activity (in words)” value in assay [2] is “lost”.

Take `COc1ccc(NC2=Cc3cccc4cccc(c34)C2=O)cc1` [Compound 23, 2-(4-methoxyanilino)-1H-phenalen-1-one]: the IC50 in assay [1] (setting [3]) is over 10 µM. For the same compound, the inhibition at 10 µM in the assay with MCF-7 cells was determined as 12 ± 0.6%.

For the compound `O=C1C(c2ccccc2)=Cc2cccc3cccc1c23` [Compound 4, 2-phenyl-1H-phenalen-1-one], in assay [1] (setting [3]), the half-inhibitory concentration (IC50) was over 10 µM. Also, the inhibition at 10 µM in the assay with MCF-7 cells is 14 ± 0.8%. Further, the “antiplasmodium activity (in words)” value in assay [2] was “significant loss in antiplasmodium activity”.

For the compound `CCN(CC)CCCC(C)Nc1ccnc2cc(Cl)ccc12` (centres unmarked) [Chloroquine, reference compound], the IC50 in assay [2] (Plasmodium falciparum, FCR3, read-out: Chloroquine-Resistant P. falciparum FCR3 IC50 ± SD) was 0.16 ± 0.02 µM.

Take `O=C1C(Nc2ccc(Cl)cc2)=Cc2cccc3cccc1c23` [Compound 22, 2-[(4-chloroanilino]-1H-phenalen-1-one]: the IC50 in assay [1] (setting [3]) was over 10 µM. The inhibition at 10 µM in the assay with MCF-7 cells amounted to 42 ± 0.1%.

`N#CC1=Cc2cccc3cccc(c23)C1=O` [Compound 20, 1-oxo-1H-phenalene-2-carbonitrile]: the IC50 in assay [1] (setting [3]) was over 10 µM. Further, in the assay on MCF-7 cells, the inhibition at 10 µM came to 11 ± 0.2%. Besides, in assay [2], the “antiplasmodium activity (in words)” value was “neither the 2-cyano compound (20) nor the 9-amido compound (19) were active, even at 10 µM”.

For the compound `O=C1C=Cc2cccc3ccc(-c4ccccn4)c1c23` [Compound 1c], in the assay on Plasmodium falciparum, the IC50 is 21 µM.

For `O=C1C(Br)=Cc2cccc3cccc1c23` [Compound 2, 2-Bromo-1H-phenalen-1-one], the IC50 in assay [1] (FCR3 strain) is 0.7 ± 0.04 µM; in assay [1] (setting [3]) it was under 1 µM. Further, the inhibition at 10 µM in the assay on MCF-7 cells was determined as 2 ± 0.7%.

Take `COc1ccc(Nc2ccc3cccc4c3c2C(=O)C=C4)cc1` [Compound 15, 9-[(4-methoxyphenyl)amino]-1H-phenalen-1-one]: the IC50 in assay [1] (setting [3]) was over 10 µM. Moreover, in the assay with MCF-7 cells, the inhibition at 10 µM stood at 1 ± 0.4%.

Turning to `O=C1C=Cc2cccc3ccc(O)c1c23` [Compound 9-OH, 9-hydroxy-1H-phenalen-1-one], the IC50 in assay [1] (FCR3 strain) was 0.72 ± 0.06 µM; in assay [1] (setting [3]), under 1 µM. Moreover, the inhibition at 10 µM in the assay on MCF-7 cells worked out at 6 ± 0.7%. The “antiplasmodium activity (in words)” value in assay [2] is reported as “sub-micromolar activity”.

With `COc1ccc(-c2ccc3cccc4c3c2C(=O)C=C4)cc1` [Compound 12, 9-(4-methoxyphenyl)-1H-phenalen-1-one], the IC50 in assay [1] (setting [3]) was over 10 µM. In the assay with MCF-7 cells, the inhibition at 10 µM was 15 ± 0.3%.

With `O=C1C=Cc2cccc3ccc(-c4ccccc4)c1c23` [Compound 9, 9-Phenyl-1H-phenalen-1-one], the IC50 in assay [1] (setting [3]) is over 10 µM. The inhibition at 10 µM with MCF-7 cells is 6 ± 0.1%.

`O=C1C(c2ccc(F)cc2)=Cc2cccc3cccc1c23` [Compound 6, 2-(4-fluorophenyl)-1H-phenalen-1-one]: the IC50 in assay [1] (setting [3]) was over 10 µM. In addition, the inhibition at 10 µM in the assay with MCF-7 cells worked out at 10 ± 2%.

As to `NC(=O)c1ccc2cccc3c2c1C(=O)C=C3` [Compound 19, 1-oxo-1H-phenalene-9-carboxamide], the IC50 in assay [1] (setting [3]) is over 10 µM. Further, the inhibition at 10 µM in the assay on MCF-7 cells was 0%. Further, the “antiplasmodium activity (in words)” value in assay [2] is “neither the 2-cyano compound (20) nor the 9-amido compound (19) were active, even at 10 µM”.

Take `COc1ccc(C2=CC(=O)c3cccc4cccc2c34)cc1` [Compound 1d]: the IC50 in the assay with Plasmodium falciparum is 2.1 µM.

For the compound `COc1ccccc1-c1ccc2cccc3c2c1C(=O)C=C3` [Compound 14, 9-(2-methoxyphenyl)-1H-phenalen-1-one], the IC50 in assay [1] (setting [3]) is over 10 µM. In addition, the inhibition at 10 µM in the assay on MCF-7 cells amounted to 15 ± 0.2%.

As for `COc1cccc2c1C(=O)c1c(O)c3c(c(O)c1C2=O)C[C@@](O)(C(=O)CO)C[C@@H]3O[C@H]1C[C@H](N)[C@H](O)[C@H](C)O1` [Adriamycin, reference compound], the inhibition at 10 µM in the assay on MCF-7 cells is 63 ± 4.7%.

For `O=C1C(c2ccoc2)=Cc2cccc3cccc1c23` [Compound 7, 2-(3-furyl)-1H-phenalen-1-one], the IC50 in assay [1] (setting [3]) is over 10 µM. Moreover, the inhibition at 10 µM with MCF-7 cells turned out to be 22 ± 0.2%. The “antiplasmodium activity (in words)” value in assay [2] is given as “significant loss in antiplasmodium activity”.

Take `N#Cc1ccc(-c2ccc3cccc4c3c2C(=O)C=C4)cc1` [Compound 10, 4-(1-oxo-1H-phenalen-9-yl)benzonitrile]: the IC50 in assay [1] (setting [3]) was over 10 µM. The inhibition at 10 µM with MCF-7 cells turned out to be 10 ± 1%. The “antiplasmodium activity (in words)” value in assay [2] is on record as “detrimental to activity”.

In the case of `O=C1C=Cc2c(O)ccc3ccc(O)c1c23` [Compound 30, 4,9-dihydroxy-1H-phenalen-1-one], in assay [1] (setting [3]), the IC50 was over 10 µM. Further, the inhibition at 10 µM with MCF-7 cells came out at 16 ± 0.4%. Further, the “antiplasmodium activity (in words)” value in assay [2] is “diminished antiplasmodium activity”.

With `O=C1C(I)=Cc2cccc3cccc1c23` [Compound 3, 2-Iodo-1H-phenalen-1-one], the IC50 in assay [1] (setting [3]) was over 10 µM. In addition, in the assay with MCF-7 cells, the inhibition at 10 µM came out at 4 ± 0.4%. Further, the “antiplasmodium activity (in words)” value in assay [2] is listed as “significant loss in antiplasmodium activity”.

As usually defined, the IC50 is the concentration needed to halve the response being measured.
